Assays:
[1] = system: Rat; assay: Neural compatibility after intracisternal injection in rats (24 h observation; ED50 = toxic effects in 50% of the animals); type: in vivo; details: intracisternally, meglumine salt in water, probit analysis
Description: (§1) Table I presents a comparison of the conventional contrast media iothalamic acid (E) and diatrizoic acid (F) with 5-Carbamoyl-3-N-methylcarbamoyl-2,4,6-triiodobenzoic acid (D) of this invention, in terms of neural compatibility after intracerebral or intracisternal administration, as well as their general compatibility.
(§2) The compounds are administered, as meglumine salts dissolved in water, to 10 rats each in varying doses. After intracerebral and intracisternal injection, the animals are observed for 24 hours; the ED50 is denoted as the dose causing toxic effects (strong behavioral anomalies and disturbances in motor coordination, convulsions, or death) in 50% of the animals. After intravenous injection, the observation time was 7 days. ED50 and LD50 were calculated by probit analysis.

[2] = system: Rat; assay: General compatibility after intravenous injection in rats (7 days observation); type: in vivo; details: intravenously, meglumine salt in water, probit analysis
Description: as §1, §2

[3] = system: Rat; assay: Neural compatibility after intracerebral injection in rats (24 h observation; ED50 = toxic effects in 50% of the animals); type: in vivo; details: intracerebrally, meglumine salt in water, probit analysis
Description: as §1, §2

[4] = Iodine content of acid; type: physicochemical; details: of the free acid

Row | SMILES | ED50 (strong behavioral anomalies, disturbances in motor coordination, convulsions, or death) [1] [mg I/kg] | LD50 [1] [mg I/kg] | LD50 [2] [g I/kg] | ED50 (strong behavioral anomalies, disturbances in motor coordination, convulsions, or death) [3] [mg I/kg] | LD50 [3] [mg I/kg] | Iodine content of acid [4] [%]
1 | CNC(=O)c1c(I)c(C(N)=O)c(I)c(C(=O)O)c1I [D, 5-Carbamoyl-3-N-methylcarbamoyl-2,4,6-triiodobenzoic acid] | 13.2 | 65 | 8.7 | 42 | 66 | 63.5
2 | CNC(=O)c1c(I)c(NC(C)=O)c(I)c(C(=O)O)c1I [E, iothalamic acid] | 10.6 | 58 | 7.4 | 36 | 52 | 62.1
3 | CC(=O)Nc1c(I)c(NC(C)=O)c(I)c(C(=O)O)c1I [F, diatrizoic acid] | 3.0 |  | 7.3 | 12 |  | 62.1
